Assay results published in publication PMC10892409, “Exploring Ocimum basilicum’s Secondary Metabolites: Inhibition and Molecular Docking against Rhynchophorus ferrugineus for Optimal Action” (Plants, 2024).
≈ marks a conversion by molar mass, not a printed value. Where “and” joins values, the source holds several entries; their conditions need not be identical. Equal entries are not always repeated.

How the values were obtained:
AChE [1] = assay: In vitro AChE inhibition, larval homogenate (Ellman); type: biochemical, Rhynchophorus ferrugineus; conditions: fourth-instar larvae preparation
Method: (§1) The R. ferrugineus were homogenized larvae in a buffer (sodium phosphate, 40 mM, and pH 7.4); then, sodium chloride (10 mM dissolved in 1% (w/v) triton X-100) was added. During centrifugation (Sigma 3–30 KS), the homogenate was chilled to 4 °C and spun at a speed of 5000 rpm (20 min). The supernatant was either immediately put into action for an enzymatic test or frozen and kept at […] for later use. Each test was repeated three times. The protein content was determined using the same protocol employed by Lowry with modification using protein extract (100 µL) combined with an alkaline copper solution and a Folin–Ciocalteu phenol reagent (2 mL and 200 µL, respectively). The intensity of the resulting blue hue was evaluated during 30 min of incubation at 25 °C. Using an ELISA plate reader and a BSA standard curve, we could calculate the protein concentration by analyzing the absorbance at 600 nm (Multiskan SkyHigh Microplate Spectrophotometer, Thermo Fisher Scientific, Waltham, MA, USA).
(§2) The enzyme AChE was assessed using a substrate of acetylthiocholine iodide and evaluated using 5,5′-dithiobis [2-nitrbenzoic acid] (DTNB), according to [94]. Each well contained a sodium phosphate buffer (140 µL) (pH: 8.0; 100 mM), DTNB (10 µL), extract (20 µL)/components at 1, 10, 50, 100, and 1000 µg/mL in DMSO and underwent 15 min of incubation at 25 °C. Acetylthiocholine (ATCh) was added to start the reaction (10 µL). The ATCh enzymatic hydrolysis produced a 5-thio-2-nitrobenzoate anion as a color (yellow) that was detected by measuring its wavelength, i.e., 412 nm, thereby allowing the researchers to track the rate of ATCh hydrolysis (15 min). Each response was performed three times on a microplate and examined using an ELISA plate reader to determine the 412 nm absorbance of the combination (Multiskan SkyHigh Microplate Spectrophotometer). The AChE-specific activity was measured as OD412/mg protein.h. based on observing the effect of raising the quantities of all of these compounds during the tests on the inhibition results, and the inhibitory concentration (IC50) was calculated. Then, a computer algorithm was used to determine the IC50 values (Version 9.01 of GraphPad Prism by Inc., 2020, San Diego, CA, USA).

[2] = system: fourth-instar larvae of R. ferrugineus; assay: Topical application (contact) to fourth-instar larvae (probit LD50); type: in vivo, Rhynchophorus ferrugineus; conditions: after 1 day of treatment, 95% confidence limits in brackets
Method: (§3) Over the course of 40 days, an O. basilicum cell suspension was cultivated in this investigation, and then the extract was obtained. […] Long segments of sugarcane stem were employed in the insect breeding lab at King Faisal University’s Research and Training Center to raise adult R. ferrugineus larvae. For this experiment, we used a topical application technique with larvae stored at 4 °C for five minutes to test the extract’s activity. Using a hand-operated micro-applicator (Burkard Manufacturing Co., Ltd., Hertfordshire, UK, collected using a […] micro-syringe), extracts at escalating ratios (10 µL) were injected into the dorsal surface of the larvae (Ito Corp.; MS-N50, Shizuoka, Japan). Five larvae per box in a series of three replicates were fed on sugarcane stem pieces measuring 10 cm in length. The LD50 was calculated by measuring the percentage of dead larvae at 24, 48, 72, and 96 h following a topical application. The antifeedant impact was determined in adults by giving them 10 cm sugarcane stem segments cut in half longitudinally. Long strips of sugarcane stem (32 cm^2) were immersed in the previous serial extract and compound concentration (10 mL) for ten seconds before they were dried in ambient air using a plastic box. Each box included a new pair of larvae (a male and a female). Ten sets of each treatment were performed. Data on how well the subjects ate were evaluated at 24, 48, 72, and 96 h.
(§4) The tissue culture parameters were calculated quantitatively from three independent sets of samples, and the mean SD was used to describe the findings. Toxicity parameters were determined quantitatively using a 10-replicate sample, and means and standard deviations were used to present the data. The median dosage obtained from a dose–response regression was used to calculate the LC50 value. By analyzing the comparative growth rate vs. the crude extract logarithm using least squares regression, the range of LC50 was calculated with 95% confidence. A simple variance study was performed on the increased weight and enzymatic activity data (ANOVA). The distinction between the means was accomplished using the Student–Newman–Keuls (SNK) test. Additionally, SPSS version 25 was used to find p < 0.05 significant deviations from the mean.

AChE [3] = assay: In vivo AChE inhibition in treated fourth-instar larvae; parameters: species or system Rhynchophorus ferrugineus; conditions: fourth-instar larvae treated 24 h
Method: as §2
(§5) Each enzyme’s in vivo impact was measured after treating larvae with an extract or pure chemicals. An inhibitor-free test combination served as a negative control. We determined the absorbance of the enzymes throughout a spectrum of wavelengths using a rapid reader for ELISA plates (Multiskan SkyHigh Microplate Spectrophotometer). Extracts and pure chemicals were used to treat R. ferrugineus larvae at previous serial concentrations, and their AChE, ACP, ALP, and GABA-T activity was tested in vivo using the methods outlined above. Larvae spent a day on leaf disks treated with chemicals or extract.

ACPs [4] = assay: In vivo ACP inhibition in treated fourth-instar larvae; parameters: species or system Rhynchophorus ferrugineus; conditions: fourth-instar larvae treated 24 h
Method: (§6) Activities of ACPs and ALPs were evaluated using a modified version of the Asakura technique. The ACP test required incubating 100 μL of crude enzyme in a buffer of 650 μL of sodium acetate (pH: 5.0; 50 mM with ACPs) or 250 μL of Tris–HCl (at 50 mM; pH: 8.0 with ALPs) and p-nitrophenyl phosphate (5.5 mM). For 30 min; the various mixes were kept at 37 °C for incubation. Thereafter, 500 μL of NaOH (0.5 N) stopped the reaction. Using an ELISA plate reader, we determined the mixture’s 415 nm absorbance value (Multiskan SkyHigh Microplate Spectrophotometer). The ACP- and ALP-specific activity was estimated as OD 415/mg protein·h.
as §5

ALPs [5] = assay: In vitro ALP inhibition, larval homogenate; type: biochemical, Rhynchophorus ferrugineus; conditions: for IC50 ALPs in vitro: fourth-instar larvae preparation
Method: as §1, §6

ACPs [6] = assay: In vitro ACP inhibition, larval homogenate; type: biochemical, Rhynchophorus ferrugineus; conditions: fourth-instar larvae preparation
Method: as §1, §6

R. ferrugineus adults = assay: Antifeedant/insecticidal test on adults with treated sugarcane stem (probit LC50); type: in vivo, Rhynchophorus ferrugineus; conditions: Rhynchophorus ferrugineus, 24 h, after 1 day of treatment, 95% confidence limits in brackets, read-out: LC50
Method: as §3, §4

ALPs [7] = assay: In vivo ALP inhibition in treated fourth-instar larvae; parameters: species or system Rhynchophorus ferrugineus; conditions: fourth-instar larvae treated 24 h
Method: as §6, §5

[8] = listed as quercetin-3-O-rutinoside

## C[C@@H]1O[C@@H](OC[C@H]2O[C@@H](Oc3c(-c4ccc(O)c(O)c4)oc4cc(O)cc(O)c4c3=O)[C@H](O)[C@@H](O)[C@@H]2O)[C@H](O)[C@H](O)[C@H]1O [Quercetin-3-O-rutinoside]
AChE [1]
  IC50 AChE in vitro: 98 ± 0.87 µg/mL
AChE [1]; [8]
  IC50 AChE in vitro: 98.4 µg/mL
[2]
  LD50: 16.2 (15.3–17.2) µg/Larvae
[2]; [8]
  LD50: 16.2 µg/Larvae
AChE [3]
  IC50 AChE in vivo: 348 ± 0.87 µg/mL
AChE [3]; [8]
  IC50 AChE in vivo: 347.6 µg/mL
ACPs [4]; [8]
  IC50 ACPs in vivo: 298.4 µg/mL
ALPs [5]
  IC50 ALP in vitro: 102 µg/mL (≈ 168 µM)
ALPs [5]; [8]
  IC50 ALPs in vitro: < 200 µg/mL
ACPs [6]; [8]
  IC50 ACPs in vitro: 104.8 µg/mL (≈ 172 µM)
R. ferrugineus adults
  LC50: 1170 µg/mL (≈ 1910 µM)

## O=C(C=Cc1ccc(O)c(O)c1)OC(Cc1ccc(O)c(O)c1)C(=O)OC1OC(CO)C(O)C(O)C1O (centres unmarked) [Rosmarinic acid glucoside]
AChE [1]
  IC50 AChE in vitro: 89 ± 0.85 µg/mL
AChE [1]; listed as rosmarinyl glucoside
  IC50 AChE in vitro: 89.4 µg/mL
[2]; listed as Rosmarinyl glucoside
  LD50: 17.2 (15.7–18.1) µg/Larvae
[2]; listed as rosmarinyl glucoside
  LD50: 17.2 µg/Larvae
AChE [3]
  IC50 AChE in vivo: 313 ± 0.85 µg/mL
AChE [3]; listed as rosmarinyl glucoside
  IC50 AChE in vivo: 312.7 µg/mL
ACPs [4]; listed as rosmarinyl glucoside
  IC50 ACPs in vivo: 318.8 µg/mL
ALPs [7]; listed as rosmarinyl glucoside
  IC50 ALPs in vivo: 387.4 µg/mL
ALPs [5]
  IC50 ALP in vitro: 120 µg/mL (≈ 229 µM)
ALPs [5]; listed as rosmarinyl glucoside
  IC50 ALPs in vitro: < 200 µg/mL
ACPs [6]; listed as rosmarinyl glucoside
  IC50 ACPs in vitro: 123.6 µg/mL (≈ 237 µM)
R. ferrugineus adults
  LC50: 1230 µg/mL (≈ 2350 µM)

## O=C(/C=C/c1ccc(O)c(O)c1)O[C@H](Cc1ccc(O)c(O)c1)C(=O)O [Rosmarinic acid]
AChE [1]
  IC50 AChE in vitro: 119.2 µg/mL and 119 ± 1.14 µg/mL
[2]
  LD50: 11.8 (11.2–12.5) µg/Larvae
AChE [3]
  IC50 AChE in vivo: 235.1 µg/mL and 235 ± 1.14 µg/mL
ACPs [4]
  IC50 ACPs in vivo: < 330 µg/mL and 258.7 µg/mL
ALPs [7]
  IC50 ALPs in vivo: 256.7 µg/mL
ALPs [5]
  IC50 ALP in vitro: 150 µg/mL (≈ 415 µM)
  IC50 ALPs in vitro: < 200 µg/mL
ACPs [6]
  IC50 ACPs in vitro: 139.7 µg/mL (≈ 388 µM)
R. ferrugineus adults
  LC50: 1430 µg/mL (≈ 3960 µM)

## O=C(/C=C/c1ccc(O)c(O)c1/C=C/c1ccc(O)c(O)c1)O[C@H](Cc1ccc(O)c(O)c1)C(=O)O [Salvianolic acid A]
AChE [1]
  IC50 AChE in vitro: 94 ± 0.94 µg/mL
AChE [1]; listed as salvianolic acid A
  IC50 AChE in vitro: 93.6 µg/mL
[2]
  LD50: 11.3 (10.2–12.47) µg/Larvae
[2]; listed as salvianolic acid A
  LD50: 11.3 µg/Larvae
AChE [3]
  IC50 AChE in vivo: 178.2 µg/mL
ACPs [4]
  IC50 ACPs in vivo: < 330 µg/mL and 226.3 µg/mL
ALPs [7]
  IC50 ALPs in vivo: 213.8 µg/mL
ALPs [5]
  IC50 ALP in vitro: 116 µg/mL (≈ 234 µM)
ALPs [5]; listed as salvianolic acid A
  IC50 ALPs in vitro: < 200 µg/mL
ACPs [6]; listed as salvianolic acid A
  IC50 ACPs in vitro: 112.2 µg/mL (≈ 227 µM)
R. ferrugineus adults
  LC50: 1260 µg/mL (≈ 2550 µM)

## Chicoric acid
AChE [1]
  IC50 AChE in vitro: 108 ± 1.07 µg/mL
AChE [1]; listed as chicoric acid
  IC50 AChE in vitro: 107.5 µg/mL
[2]
  LD50: 9.45 (9.07–10.45) µg/Larvae
[2]; listed as chicoric acid
  LD50: 9.45 µg/Larvae
AChE [3]
  IC50 AChE in vivo: 213 ± 1.07 µg/mL
AChE [3]; listed as chicoric acid
  IC50 AChE in vivo: 211.6 µg/mL
ACPs [4]; listed as chicoric acid
  IC50 ACPs in vivo: < 330 µg/mL and 204.8 µg/mL
ALPs [7]; listed as chicoric acid
  IC50 ALPs in vivo: 237.2 µg/mL
ALPs [5]; listed as chicoric acid
  IC50 ALPs in vitro: < 200 µg/mL
ACPs [6]; listed as chicoric acid
  IC50 ACPs in vitro: 101.7 µg/mL
